Data set [1] can be described thus: reversion of Compound 1 to β-lapachone in human plasma (UV-vis). The class given is in vitro ADME. Conditions: diluted human plasma. An excerpt:
Thus, compound 1 also reverts back to β-lapachone under the conditions of high pH or when mixed with plasma.

Data set [2] is described as follows: reversion of Compound 1 to β-lapachone in dilute or buffered solution (UV-vis, HPLC). It counts as physicochemical. An excerpt:
Thus, compound 1 also reverts back to β-lapachone under the conditions of high pH or when mixed with plasma. The hydroxy sulfonate of β-lapachone easily reverts back to β-lapachone in dilute solutions of bisulfite and other reagents. […] However, the mass by LC/MS for Compound 1 can be obtained using a short LC method where the acetonitrile/water mobile phase is acidified with 0.1% formic acid. Even under these conditions, two peaks are observed, one peak corresponding to Compound 1, and one to the β-lapachone released from the complex.

On data set [3], the source says:
Methyl beta-cyclodextrin (MeβCD) is a derivative of beta-cyclodextrin with 1-7 methyl substituents on the secondary O-2 positions.
HPβCD with two different degrees of substitutions, 6.9 and 4.3, were compared in terms of β-lapachone solubility.

A short description of data set [4]: maximum concentrations of β-lapachone converted to Compound 1 at different pHs. It counts as physicochemical.
The nature of data set [5]: equilibrium solubility of β-lapachone with bisulfites, HPLC. It counts as physicochemical. The note with it: 3-15 mg/mL sodium metabisulfite or sodium bisulfite in water or 2.5-5% HPβCD; shaken 24 hours. How it is done: Solutions of bisulfites at different concentrations were prepared in water or 2.5% HPβCD and an excess amount of β-lapachone was added to obtain a saturated solution. These solutions were shaken for 24 hours, filtered through a 0.45 μm filter, and analyzed for β-lapachone concentration by HPLC. The equilibrium solubility results, in the presence and absence of HPβCD, are illustrated in FIGS. 1A to 1C. Bisulfite can enhance the equilibrium solubility of β-lapachone depending on the concentration of the bisulfites. […] The solubility of the β-lapachone is directly proportional with the amounts of bisulfites added, until they reach respective saturation concentrations (See FIG. 1C).

The subject of data set [6] is normal or proliferating human PBMC. Conditions: cited from earlier work.
For data set [7], the system named is human cancer cell lines. The note with it: single agent, typical range, read-out: antineoplastic activity (IC50); cited from earlier work.

Molecules are shown by their SMILES.

The source of these data is patent US7790765B2, “Hydroxy sulfonate of quinone compounds and their uses” (ArQule, Inc., priority 2007, dated 2010).

By IC50 is commonly meant the concentration that gives 50% inhibition.

`CC1(C)CCC2=C(O1)c1ccccc1C(O)(S(=O)(=O)[O-])C2=O.[Na+]` (stereo not drawn) [Compound 1, Sodium 6-hydroxy-2,2-dimethyl-5-oxo-3,4,5,6-tetrahydro-2H-benzo(h)chromene-6-sulfonate]: the “stability in human plasma: reversion to β-lapachone” value is given as “UV-vis spectrum become identical to that for a solution of β-lapachone” in data set [1] (pH 7) and “the only species present is β-lapachone” in data set [1] (pH 7, listed as compound 1). In addition, the “stability: reversion to β-lapachone” value in data set [2] (diluted in phosphate buffered saline at pH 7, UV-vis) is listed as “UV-vis spectrum become identical to that for a solution of β-lapachone”; in data set [2] (diluted with mobile phase of acetonitrile and phosphate buffer pH 6.8, HPLC) it was “only the β-lapachone can be detected”; in data set [2] (dilution to 20-100 μM or less, or pH increased to 6-7 or higher in combination with dilution, UV-vis), “converts Compound 1 back to β-lapachone”.
On to `CC1(C)CCC2=C(O1)c1ccccc1C(=O)C2=O` [β-lapachone, 3,4-dihydro-2,2-dimethyl-2H-naphtho[1,2-b]pyran-5,6-dione], for which, in data set [3], the “higher solubilizing effect of HPβCD of lower degree of substitution on β-lapachone solubility” value is listed as 16-17%. Besides, the “Converted β-lapachone Conc.” value worked out at 5.90 mg/mL in data set [4] (Na2S2O5 5 mg/mL, pH of the formulation 3.01); 5.76 mg/mL in data set [4] (Na2S2O5 5 mg/mL, pH of the formulation 4.46); 1.88 mg/mL in data set [4] (Na2S2O5 5 mg/mL, pH of the formulation 7.04); 5.76 mg/mL in data set [4] (NaHSO3 5 mg/mL, pH of the formulation 3.29); 5.97 mg/mL in data set [4] (NaHSO3 5 mg/mL, pH of the formulation 4.52); 2.23 mg/mL in data set [4] (NaHSO3 5 mg/mL, pH of the formulation 7.04). The “equilibrium solubility in aqueous solution” value in data set [5] was “dramatically improve the solubility”. Besides, the cytotoxic effects result in data set [6] is on record as “No cytotoxic effects were observed”. Besides, the IC50 in data set [7] is 1 to 10 µM.
